The values below come from patent publication US6992215B2, “Thiol-based NAALADase inhibitors” (Guildford Pharmaceuticals Inc., priority 2001, dated 2006).

Where “and” joins values, the source holds several entries; their conditions need not be identical. Equal values may be shown once. Peptide text beside a SMILES is read from it.

In assay [1] the test system is STZ-induced diabetic rats. Nature of the assay: Neuropathic pain in STZ model (Hargreaves thermal nociception). It counts as in vivo, Sprague-Dawley rats. Conditions: 10 mg/kg i.p. daily, treatment started 45 days post-STZ. Here is the method:
Male Sprague-Dawley rats (200–225 g) were rendered diabetic by intravenous administration of streptozotocin (“STZ”, 70 mg/kg in phosphate buffered saline). Diabetic animals were divided into five groups: one group receiving Compound A (10 mg/kg or 1 mg/kg), Compound D (10 mg/kg or 1 mg/kg) or vehicle. Another group of animals (non-STZ treated) served as non-diabetic controls. Drug/vehicle treatment was started in diabetic animals 45 days post-STZ administration. STZ-induced diabetic rats were tested for sensitivity to a heat source as soon as blood glucose levels rose to 320 mg/dl or above (30 days post STZ). The rats were then acclimated to a Hargreaves apparatus and thermal nociception was monitored using an infrared heat source directed into the dorsal surface of the hindpaw, and the time taken for the animal to remove its paw noted to the nearest 0.1 seconds (see Hargreaves et al., supra, for detailed experimental method). The intensity of the beam source was adjusted such that the mean latency for control animals (non-STZ treated) was approximately 10 seconds. Each animal was tested 8 times and the mean difference score (between mean non-diabetic control latency and mean diabetic latency) are graphically presented in FIGS. 7A and 7B.

The subject of another assay is BB/W diabetic rats. Nature of the assay: Progression of neuropathic pain and nerve conduction deficits in BB/W model. It counts as in vivo. The text has this:
Male BB/W rats (BRI, Mass) spontaneously develop a cell mediated autoimmune destruction of pancreatic B cells, resulting in onset of insulin-dependent (Type I) diabetes (Guberski 1994). […] This renders them valuable for experimental trials of new compounds for future treatments of this major disorder. In the present study, Compound D and Compound A were examined for their ability to alter the progression of diabetic neuropathy. […] Another group of non-diabetic rats also receiving vehicle were tested. All animals were continuously monitored for body weight, urine volume, blood sugar and glycated haemoglobin. In the first month of the study, all animals were tested for thermal nociception in a Hargreaves apparatus, weekly. After the first month this was done biweekly and then monthly. The testing consists of directing an infrared heat source onto the dorsal surface of the rat hindpaw and noting the time taken for the animal to remove its paw (see Hargreaves et al., supra, for a description of the experimental method). Each animal was tested 8 times and the mean withdrawal latency noted.
Nerve conduction velocity was also measured every two weeks through the first eight weeks of treatment and every month thereafter through to the six months of treatment (see De Koning et al., Peptides, Vol. 8, No. 3, pp. 415–22 (1987) for a description of the experimental method). […] This was apparent starting at 8 weeks of treatment and persisted to a similar degree through to the six month termination point of the study.

The test system of the next assay is STZ-diabetic rats. The experiment in a line: Diabetic neuropathy in STZ model (motor and sensory nerve conduction velocity). The format is in vivo. Here is the method:
Motor and sensory nerve conduction velocity was also measured in STZ-diabetic animals after 4, 8 and 12 weeks of treatment (see De Koning et al., supra, for a description of the experimental method). Briefly, stimulating needle electrodes were inserted close to the sciatic and tibial nerves with recording electrodes being placed subcutaneously over the distal foot muscles, in anesthetized rats.

A further assay relates to transgenic G1H mice. The experiment in a line: Effect of NAALADase inhibitors on onset of ALS (FALS transgenic mice). The format is in vivo. Here is the method:
The effect of NAALADase inhibitors on the onset of ALS was tested using the transgenic mice model of familial amyotrophic lateral sclerosis (FALS), which is detailed in Gurney, M., Annals of Neurology (1996) 39:147–157, and otherwise well known in the art. One month old transgenic G1H mice were treated with daily intraperitoneal injections of a vehicle (50 mM HEPES-buffered saline) or a NAALADase inhibitor (50 mg/kg Compound A). Clinical symptoms of the mice were monitored daily. The onset of clinical disease was scored by examining each mouse for its shaking of limbs when suspended in the air by its tail, cross spread of spinal reflexes, hindlimb paralysis, body weight and wheel running activity.

In assay [2] the test system is rats with unilateral elevation of intraocular pressure. Nature of the assay: Experimental rat glaucoma (IOP elevation, optic nerve fiber counting). It counts as in vivo. Conditions: for FIBER NUMBER / PERCENT DIFFERENCE (fiber number between glaucoma and normal eye): 10 mg/kg i.p. daily; for mean percent fiber loss versus saline-treated control groups: at 8 weeks, p=0.05 for Compound A and p=0.02 for Compound B. How it is done: (§1) All experiments complied with the Association for Research in Vision and Ophthalmology Statement for the Use of Animals in Ophthalmic and Vision Research. 82 male Brown Norway rats (Rattus norvegicus), each weighing approximately 250 gm, were treated using procedures approved by the Animal Care Committee of the Johns Hopkins University School of Medicine. The rats were housed with a 12 hour light/12 hour dark cycle and fed ad libitum.
EXPERIMENTAL GLAUCOMA: Unilateral elevation of intraocular pressure (“IOP”) was produced in 56 rats by microinjection of hypertonic saline into episcleral veins, following procedures described in Morrison, J. et al., IOVS (March 1998) 39:526–531. Beginning on the day of IOP elevation, the rats were treated daily with intraperitoneal injections of either a vehicle (23 rats with 50 mM HEPES-buffered saline) or a NAALADase inhibitor (11 rats with 10 mg/kg of Compound A and 22 rats with 10 mg/kg of Compound B). 11 saline treated rats, 11 Compound A treated rats and 11 Compound B treated rats were sacrificed at 8 weeks, and the remaining rats at 12 weeks, after initial IOP elevation.
(§2) OPTIC NERVE COUNTING: The rats were sacrificed by exsanguination under deep pentobarbital anesthesia. They were perfused through the heart with 2% paraformaldehyde/2% glutaraldehyde in 0.1 M phosphate buffer, pH 7.2, and the eyes with attached optic nerves were removed. A cross-section of the optic nerve from both experimental (glaucoma or transection) and control eyes was removed 1.5 mm posterior to the globe, 1 mm in thickness, and post-fixed in 2% osmium tetroxide in buffer. These were processed into epoxy resin, sectioned at 1 micron and stained with toluidine blue.
(§3) The area of the optic nerve cross-section was measured by outlining its outer border at 10× magnification on an image analysis system (Universal Imaging Corp., Westchester, Pa.) with Synsys digital camera and Metamorph software. Three area measurements were taken and the mean value was determined. To measure the density and fiber diameter distributions, images were captured with a 100× phase contrast objective from 10 different areas of each nerve. These were edited to eliminate non-neural objects and the size of each axon internal to the myelin sheath (its minimum diameter) and the density of axons/square mm were calculated for each image and nerve. The mean density was multiplied by total nerve area to yield fiber number for each nerve. The total fiber number in glaucoma or transection nerves was compared to the normal, fellow eye of each rat to yield a percent loss value. The number of axons counted among the 10 images was an approximately 20% sample of the 80–90,000 axons in normal rat nerves. The person measuring axon number was masked to the protocol conducted on the nerves.

In assay [3] the test system is rats with unilaterally transected optic nerve. The experiment in a line: Optic nerve transection (optic nerve fiber counting). The format is in vivo, Rattus norvegicus. Conditions: for remaining axons relative to the saline-treated rats: 2 weeks after transection; for FIBER NUMBER / PERCENT DIFFERENCE (fiber number between transected eye and normal eye): 10 mg/kg i.p. daily. How it is done:
as §1
OPTIC NERVE TRANSECTION: The optic nerve was transected unilaterally in 26 rats under intraperitoneal pentobarbital anesthesia. The conjunctiva was opened with scissors and the optic nerve exposed by traction on extraocular muscles. The transection was performed with microscissors 5 mm posterior to the globe, with specific attention to avoidance of injury to major ocular blood vessels. Immediately after transection, the retina was examined ophthalmoscopically to assure that the retinal arterial blood supply was not disrupted. The conjunctiva was closed with absorbable suture and the eye dressed with antibiotic ointment. Beginning on the day of transection, the rats were treated daily with intraperitoneal injections of either a vehicle (9 rats with 50 mM HEPES-buffered saline) or a NAALADase inhibitor (8 rats with 10 mg/kg of Compound A and 9 rats with 10 mg/kg of Compound B). 5 saline treated rats, 3 Compound A treated rats and 4 Compound B treated rats were sacrificed at 2 weeks, and the remaining rats at 4 weeks, after transection.
as §2, §3

Assay [4] relates to transgenic HD mice of the N171–82Q strain. The experiment in a line: Huntington's disease transgenic mouse model, behavioral testing (rotarod, locomotion). It counts as in vivo. Conditions: FIG. 42. How it is done:
Transgenic HD mice of the […]-[…] strain and non-transgenic littermates were treated with NAALADase inhibitor Compound B (30 mg/kg) or a vehicle from 10 weeks of age. The mice were placed on a rotating rod (“rotarod”). The length of time at which the mouse fell off the rotarod was recorded as a measure of motor coordination. […] The treatment with Compound B had no effect on the rotarod performance of normal non-HD mice. The total distance traveled by the mice was also recorded as a measure of overall locomotion.

For assay [5], the system named is transgenic HD mice (N171–82Q). Nature of the assay: Huntington's disease transgenic mouse model, survival. It counts as in vivo. How it is done:
The effects of Compound B and vehicle on the survival of transgenic HD mice (N171–82Q) were evaluated. Thirteen mice (six male and seven female) were assigned to the Compound B treatment group, and fourteen mice (six male and eight female) were assigned to the vehicle treatment group. Treatment was continued until all the mice died.

A further assay has as its target T1, NAALADase (Homo sapiens, UniProt Q04609).
T1 construct: 100 μL tissue; from tissue; host or cells: unspecified tissue
Conditions: NAAG as substrate; cited from earlier work.

The mark [6] stands for this setting: 8 week group, positive value indicates fewer fibers in the glaucoma eye.

T1 sequence (Q04609 whole entry): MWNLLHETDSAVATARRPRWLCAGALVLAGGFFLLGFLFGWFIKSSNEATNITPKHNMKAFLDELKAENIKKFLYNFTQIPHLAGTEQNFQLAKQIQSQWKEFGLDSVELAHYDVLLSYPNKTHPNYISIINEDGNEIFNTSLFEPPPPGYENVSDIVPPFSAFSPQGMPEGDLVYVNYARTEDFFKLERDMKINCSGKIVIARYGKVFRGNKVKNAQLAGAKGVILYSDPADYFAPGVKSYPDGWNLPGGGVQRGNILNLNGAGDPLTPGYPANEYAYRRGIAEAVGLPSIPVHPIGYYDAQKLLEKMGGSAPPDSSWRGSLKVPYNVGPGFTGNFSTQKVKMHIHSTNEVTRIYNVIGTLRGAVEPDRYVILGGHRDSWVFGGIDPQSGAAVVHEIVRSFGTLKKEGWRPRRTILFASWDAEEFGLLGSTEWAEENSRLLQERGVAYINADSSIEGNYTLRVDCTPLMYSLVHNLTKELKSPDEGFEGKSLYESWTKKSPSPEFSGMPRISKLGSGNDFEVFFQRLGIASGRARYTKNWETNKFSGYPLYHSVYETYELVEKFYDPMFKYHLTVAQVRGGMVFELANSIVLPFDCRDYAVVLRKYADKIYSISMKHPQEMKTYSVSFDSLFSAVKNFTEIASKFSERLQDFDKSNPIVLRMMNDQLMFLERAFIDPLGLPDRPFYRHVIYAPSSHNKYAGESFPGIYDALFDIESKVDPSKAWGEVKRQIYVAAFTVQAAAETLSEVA

As for `O=C(O)CCC(CP(=O)(O)Cc1c(F)c(F)c(F)c(F)c1F)C(=O)O` (centres unmarked) [Compound A], the “hyperalgesic response (withdrawal latency difference score)” value in assay [1] is listed as “completely reversed”. Further, in the assay on BB/W diabetic rats (10 mg/kg daily, from 8 weeks to six months of treatment, FIG. 12), the “nerve conduction velocity deficits versus diabetic vehicle controls” value is “significantly less severe nerve conduction deficits”. In addition, the “withdrawal latency versus diabetic vehicle-treated rats” value with BB/W diabetic rats (10 mg/kg i.p. daily, starting after 4 weeks and through six months of treatment, FIG. 11) is on record as “longer withdrawal latencies”. Besides, the “motor and sensory nerve conduction velocities” value in the assay with STZ-diabetic rats (10 mg/kg daily for 4, 8 and 12 weeks, FIGS. 9A and 9B) was “tended to improve (increase)”. For the same compound, the “treatment time after which improvement of motor nerve conduction velocity was significant” value with STZ-diabetic rats (10 mg/kg daily, FIG. 9A) is 12 weeks. In addition, the “treatment time after which improvement of sensory nerve conduction velocity was significant” value in the assay with STZ-diabetic rats (10 mg/kg daily, FIG. 9B) is 8 weeks. The “DIFFERENCE (disease onset, Compound A treated versus vehicle treated mice)” value with transgenic G1H mice (50 mg/kg daily intraperitoneal injections) was 32 and 25. Further, the “DISEASE ONSET FOR COMPOUND A TREATED MICE” value in the assay on transgenic G1H mice (50 mg/kg daily intraperitoneal injections from one month of age) was 221 days and 166 days. Moreover, the “FIBER NUMBER” value in assay [2] (8 week group) is reported as 79156 ± 2436; in assay [3] (2 weeks survival) it was 26,426 ± 23,025; in [3] (4 weeks survival) it was 13,599 ± 7,868. Also, in assay [2] (setting [6]), the “PERCENT DIFFERENCE (fiber number between glaucoma and normal eye)” value is reported as −1.82 ± 2.92%. The “mean percent fiber loss versus saline-treated control groups” value in assay [2] is “statistically less”. Besides, the “remaining axons relative to the saline-treated rats” value in assay [3] was found to be 3 times. In addition, the “PERCENT DIFFERENCE (fiber number between transected eye and normal eye)” value in assay [3] (2 weeks survival) was determined as 65.3 ± 30.9%; in assay [3] (4 weeks survival), 82.4 ± 8.9%.

On to `O=C(O)CCC(CCCS)C(=O)O` (centres unmarked) [Compound B, 2-(3-sulfanylpropyl)pentanedioic acid], for which the “FIBER NUMBER” value in assay [2] (8 week group) is reported as 80785 ± 2121; in assay [2] (12 week group) it was 90504 ± 1718; in [3] (2 weeks survival) it was 19,550 ± 11,383; in assay [3] (4 weeks survival) it was 5,162 ± 5,017. Also, the “PERCENT DIFFERENCE (fiber number between glaucoma and normal eye)” value in [2] (setting [6]) is −0.82 ± 2.97%; in assay [2] (12 week group), −3.21 ± 2.86%. The “mean percent fiber loss versus saline-treated control groups” value in [2] was “statistically less”. Also, the “remaining axons relative to the saline-treated rats” value in [3] was “twice”. The “PERCENT DIFFERENCE (fiber number between transected eye and normal eye)” value in assay [3] (2 weeks survival) is 75.3 ± 14.8%; in assay [3] (4 weeks survival), 93.4 ± 6.2%. For the same compound, in assay [4] (normal non-HD mice, 30 mg/kg), the rotarod performance result is reported as “no effect”. Besides, the “rotarod performance (time on the rotarod) versus vehicle” value in assay [4] (transgenic HD mice, 30 mg/kg from 10 weeks of age) is “stayed longer on the rotarod”. Also, in assay [5] (female mice, p-value=0.03, FIG. 46), the “survival time versus vehicle treated counterparts” value is listed as “significantly prolonged survival time”. Further, in assay [5] (p-value=0.07), the “difference in median survival time versus vehicle treatment group” value was “not statistically significant”. Besides, in [5] (transgenic HD mice, male and female, FIG. 44), the median survival time is on record as 184 days.

Broadly, the Km is the concentration of substrate that gives half-maximal velocity. On to `CC(=O)N[C@@H](CC(=O)O)C(=O)N[C@@H](CCC(=O)O)C(=O)O` [NAAG, N-acetyl-aspartyl-glutamate] (Ac-Asp-Glu-OH), for which the Km on NAALADase is 0.54 µM.
